Test results published in the NIST ThermoML archive (doi:10.1021/acs.jced.7b00176).

Experiment: xn = mol fraction of the nth substance listed
Details: Liquid, Vibrating tube method

COCCOCCOC [2,5,8-trioxanonane] + CCCCO
Details | mass density [kg/m3]
283.55 K, 100000 kPa, x2 = 0.5469 | 947.45
283.56 K, 40000 kPa, x2 = 0.5469 | 918.49
283.56 K, 60000 kPa, x2 = 0.5469 | 928.98
283.56 K, 80000 kPa, x2 = 0.5469 | 938.59
283.58 K, 5000 kPa, x2 = 0.5469 | 897.03
283.58 K, 10000 kPa, x2 = 0.5469 | 900.4
283.58 K, 20000 kPa, x2 = 0.5469 | 906.81
283.58 K, 30000 kPa, x2 = 0.5469 | 912.81
283.59 K, 100 kPa, x2 = 0.5469 | 893.58
283.59 K, 1000 kPa, x2 = 0.5469 | 894.22
283.62 K, 100 kPa, x2 = 0.7308 | 866.59
283.62 K, 1000 kPa, x2 = 0.7308 | 867.24
283.62 K, 5000 kPa, x2 = 0.7308 | 870.06
283.62 K, 10000 kPa, x2 = 0.7308 | 873.45
283.62 K, 20000 kPa, x2 = 0.7308 | 879.83
283.62 K, 30000 kPa, x2 = 0.7308 | 885.83
283.62 K, 40000 kPa, x2 = 0.7308 | 891.47
283.62 K, 60000 kPa, x2 = 0.7308 | 901.94
283.62 K, 80000 kPa, x2 = 0.7308 | 911.46
283.62 K, 100000 kPa, x2 = 0.7308 | 920.22
283.65 K, 100 kPa, x2 = 0.3116 | 922.56
283.65 K, 5000 kPa, x2 = 0.3116 | 926
283.65 K, 20000 kPa, x2 = 0.3116 | 935.72
283.65 K, 30000 kPa, x2 = 0.3116 | 941.81
283.65 K, 40000 kPa, x2 = 0.3116 | 947.48
283.65 K, 60000 kPa, x2 = 0.3116 | 958.06
283.65 K, 80000 kPa, x2 = 0.3116 | 967.62
283.65 K, 100000 kPa, x2 = 0.3116 | 976.51
283.66 K, 1000 kPa, x2 = 0.3116 | 923.21
283.66 K, 10000 kPa, x2 = 0.3116 | 929.34
283.66 K, 20000 kPa, x2 = 0.8787 | 855.19
283.66 K, 30000 kPa, x2 = 0.8787 | 861.18
283.66 K, 40000 kPa, x2 = 0.8787 | 866.81
283.66 K, 60000 kPa, x2 = 0.8787 | 877.23
283.66 K, 80000 kPa, x2 = 0.8787 | 886.62
283.66 K, 100000 kPa, x2 = 0.8787 | 895.34
283.67 K, 100 kPa, x2 = 0.8787 | 841.93
283.67 K, 1000 kPa, x2 = 0.8787 | 842.59
283.67 K, 5000 kPa, x2 = 0.8787 | 845.4
283.67 K, 10000 kPa, x2 = 0.8787 | 848.78
283.67 K, 40000 kPa, x2 = 0 | 978.49
283.67 K, 60000 kPa, x2 = 0 | 989.12
283.67 K, 80000 kPa, x2 = 0 | 998.75
283.67 K, 100000 kPa, x2 = 0 | 1007.71
283.68 K, 10000 kPa, x2 = 0 | 960.29
283.68 K, 20000 kPa, x2 = 0 | 966.68
283.68 K, 30000 kPa, x2 = 0 | 972.8
283.69 K, 100 kPa, x2 = 0 | 953.48
283.69 K, 1000 kPa, x2 = 0 | 954.15
283.69 K, 5000 kPa, x2 = 0 | 956.94
303.46 K, 80000 kPa, x2 = 0.8787 | 874
303.46 K, 100000 kPa, x2 = 0.8787 | 883.23
303.47 K, 100 kPa, x2 = 0 | 933.69
303.47 K, 1000 kPa, x2 = 0 | 934.43
303.47 K, 30000 kPa, x2 = 0.8787 | 846.7
303.47 K, 60000 kPa, x2 = 0.8787 | 863.93
303.48 K, 5000 kPa, x2 = 0 | 937.55
303.48 K, 10000 kPa, x2 = 0 | 941.31
303.48 K, 10000 kPa, x2 = 0.8787 | 833.12
303.48 K, 20000 kPa, x2 = 0.8787 | 840.14
303.48 K, 40000 kPa, x2 = 0.8787 | 852.78
303.49 K, 100 kPa, x2 = 0.8787 | 825.51
303.49 K, 5000 kPa, x2 = 0.8787 | 829.38
303.49 K, 20000 kPa, x2 = 0 | 948.42
303.49 K, 30000 kPa, x2 = 0 | 955.17
303.49 K, 40000 kPa, x2 = 0 | 961.41
303.49 K, 60000 kPa, x2 = 0 | 973.02
303.5 K, 1000 kPa, x2 = 0.7308 | 850.15
303.5 K, 1000 kPa, x2 = 0.8787 | 826.23
303.5 K, 5000 kPa, x2 = 0.7308 | 853.29
303.5 K, 10000 kPa, x2 = 0.7308 | 857.01
303.5 K, 20000 kPa, x2 = 0.7308 | 864.06
303.5 K, 30000 kPa, x2 = 0.7308 | 870.65
303.5 K, 40000 kPa, x2 = 0.5469 | 902.93
303.5 K, 40000 kPa, x2 = 0.7308 | 876.8
303.5 K, 60000 kPa, x2 = 0.5469 | 914.29
303.5 K, 60000 kPa, x2 = 0.7308 | 888.07
303.5 K, 79990 kPa, x2 = 0.7308 | 898.18
303.5 K, 80000 kPa, x2 = 0 | 983.33
303.5 K, 80000 kPa, x2 = 0.5469 | 924.52
303.5 K, 100000 kPa, x2 = 0 | 992.97
303.5 K, 100000 kPa, x2 = 0.5469 | 933.93
303.5 K, 100000 kPa, x2 = 0.7308 | 907.47
303.51 K, 100 kPa, x2 = 0.5469 | 875.36
303.51 K, 100 kPa, x2 = 0.7308 | 849.42
303.51 K, 1000 kPa, x2 = 0.5469 | 876.1
303.51 K, 10000 kPa, x2 = 0.5469 | 883.02
303.51 K, 20000 kPa, x2 = 0.5469 | 890.1
303.51 K, 30000 kPa, x2 = 0.5469 | 896.73
303.52 K, 5000 kPa, x2 = 0.5469 | 879.25
303.55 K, 100000 kPa, x2 = 0.3116 | 962.26
303.56 K, 10000 kPa, x2 = 0.3116 | 911.05
303.56 K, 20000 kPa, x2 = 0.3116 | 918.17
303.56 K, 30000 kPa, x2 = 0.3116 | 924.8
303.56 K, 40000 kPa, x2 = 0.3116 | 931.1
303.56 K, 60000 kPa, x2 = 0.3116 | 942.54
303.56 K, 80000 kPa, x2 = 0.3116 | 952.82
303.57 K, 100 kPa, x2 = 0.3116 | 903.4
303.57 K, 1000 kPa, x2 = 0.3116 | 904.14
303.57 K, 5000 kPa, x2 = 0.3116 | 907.29
322.62 K, 100 kPa, x2 = 0 | 914.41
322.62 K, 1000 kPa, x2 = 0 | 915.3
322.62 K, 5000 kPa, x2 = 0 | 918.77
322.62 K, 10000 kPa, x2 = 0 | 923.02
322.62 K, 20000 kPa, x2 = 0 | 930.99
322.62 K, 30000 kPa, x2 = 0 | 938.31
322.62 K, 40000 kPa, x2 = 0 | 945.16
322.62 K, 60000 kPa, x2 = 0 | 957.74
322.62 K, 80000 kPa, x2 = 0 | 968.98
322.62 K, 100000 kPa, x2 = 0 | 979.2
323.22 K, 100 kPa, x2 = 0.5469 | 857.29
323.22 K, 1000 kPa, x2 = 0.5469 | 858.13
323.22 K, 5000 kPa, x2 = 0.5469 | 861.6
323.23 K, 10000 kPa, x2 = 0.5469 | 865.79
323.23 K, 20000 kPa, x2 = 0.5469 | 873.63
323.23 K, 30000 kPa, x2 = 0.5469 | 880.92
323.23 K, 40000 kPa, x2 = 0.5469 | 887.67
323.23 K, 60000 kPa, x2 = 0.5469 | 899.96
323.24 K, 80000 kPa, x2 = 0.5469 | 911.05
323.24 K, 100000 kPa, x2 = 0.5469 | 920.96
323.26 K, 100 kPa, x2 = 0.7308 | 831.9
323.26 K, 1000 kPa, x2 = 0.7308 | 832.7
323.26 K, 5000 kPa, x2 = 0.7308 | 836.19
323.26 K, 10000 kPa, x2 = 0.7308 | 840.37
323.26 K, 20000 kPa, x2 = 0.7308 | 848.19
